Bridge positions count the residues as written; N and C are the ends. Square brackets hold non-standard residues; d marks the D form. Peptide text beside a SMILES is read from it. Ala(3-Me-diazirin-3-yl) = CC1(C[C@H](N)C(=O)O)N=N1; R8 = C=CCCCCCC[C@@](C)(N)C(=O)O; S5 = C=CCCC[C@](C)(N)C(=O)O; Nle = CCCC[C@H](N)C(=O)O A value given as a limit tells only on which side of the number the result lay.

The target in the assay is T1, flag-tagged HIF1α (AA 786-826) / His6-tagged p300 (AA 323-423) complex (Homo sapiens, UniProt Q09472).
T1 construct: His6-tagged p300 (AA 323-423); made in house; host or cells: E. coli (pETDuet vector)
In words: HIF1α p300 displacement assay (TR FRET, +CHAPS). To be noted: read-out: IC50 (nM) (HIF1α_p300 Displacement + CHAPS). In kind it is binding. On the procedure:
The ability of peptides to displace HIF1α c-terminal trans-activation domain from p300-CH was measured by a TR FRET assay. A complex of flag-tagged HIF1α (AA 786-826) and His6-tagged p300 (AA 323-423) was co-expressed using pETDuet vector (EMDMillipore, Bellrica Mass.) and purified from E. coli in the presence of 0.1 mM ZnSO4. The complex was diluted to 300 nM final in complete assay media and competitor peptides were added. The complete assay media contained 150 mM NaCl (Sigma +S5150 or equivalent), 20 mM HEPES pH 7.4 (Boston Bioproducts, Ashland, Mass.; #BB-2076), 7.5 mM CHAPS (Thermo #28300 or equivalent), and 1 mM DTT. Protein and peptide were incubated at room temperature for 1 hour before the addition of anti-Flag-K and anti-6×HIS-D2 (CisBio, Bedford Mass.) HTRF reconstitution buffer (50 mM Phosphate pH 7, 0.8 Potassium Flouride, BSA 0.2%)^1 to a final concentration of 0.5 μM and 4 nM respectively. The reaction continued for an additional two hours at room temperature. The reaction was read on a TECAN F500 plate reader with settings recommended by CisBio. The ratio of donor to acceptor fluorescence was calculated. The resulting data was analyzed with Graphpad Prism 5.0. IC50 values were calculated for both proteins using the One Site Fit-LogIC50 equation and presented in the column “IC50 (nM) (HIF1α_p300 Displacement+CHAPS)” of Table 6. ^1 Cisbio USA, Bedford, Mass.; 61HISDLB (lot 007A), 61FG2KLB (024A), HTRF Buffer (62RB3RDF)
`CCCC[C@@H]1NC(=O)[C@H](CC(C)C)NC(=O)[C@](C)(NC(=O)[C@H](CCC(=O)O)NC(=O)[C@H](CCC(=O)O)NC(=O)[C@H](CC(=O)O)NC(=O)[C@@H](NC(=O)[C@H](CC(N)=O)NC(=O)[C@@H](NC(=O)[C@H](CCC(N)=O)NC(=O)[C@H](CC(=O)O)NC(=O)[C@H](CC(C)C)NC(=O)[C@H](C)NC(=O)[C@H](CCCNC(=N)N)NC(=O)[C@]2(C)CCCC=CCCC[C@](C)(NC(=O)[C@H](CCC(N)=O)NC(=O)[C@H](CC(C)C)NC(=O)[C@H](CC(C)C)NC(C)=O)C(=O)N[C@@H](CCC(=O)O)C(=O)N[C@@H](CCC(=O)O)C(=O)N[C@@H](CC(C)C)C(=O)N2)C(C)C)[C@@H](C)CC)CCCCCCC=CCCC[C@@](C)(C(=O)N[C@@H](CCCC)C(=O)NCC(N)=O)NC(=O)[C@H]([C@@H](C)CC)NC(=O)[C@H](C(C)C)NC(=O)[C@H](CC(C)C)NC(=O)[C@H](CO)NC1=O` [SP-329] (Ac-LLQ[S5]EEL[S5]RALDQVNIDEE[R8]L[Nle]SLVI[S5][Nle]G-NH2; staple 4-8, 20-27): the IC50 is above 700 nM. To “SP-72 (Ac-FIDEEVL[Nle][S5]L[Ala(3-Me-diazirin-3-yl)]I[S5][Nle]ALDRI-NH2; staple 9-13)” belongs 400 to 700 nM; to `CCCC[C@@H]1NC(=O)[C@](C)(NC(=O)[C@@H](NC(=O)[C@H](CCC(=O)O)NC(=O)[C@H](CCC(=O)O)NC(=O)[C@H](CC(=O)O)NC(=O)[C@@H](NC(=O)[C@H](CC(N)=O)NC(=O)[C@@H](NC(=O)[C@H](CCC(N)=O)NC(=O)[C@H](CC(=O)O)NC(=O)[C@H](CC(C)C)NC(=O)[C@]2(C)CCCC=CCCC[C@](C)(NC(=O)[C@H](CCC(=O)O)NC(=O)CNC(=O)[C@H](CCC(N)=O)NC(=O)[C@H](CC(C)C)NC(=O)[C@H](CC(C)C)NC(C)=O)C(=O)N[C@@H](CC(C)C)C(=O)N[C@@H](CC(C)C)C(=O)N[C@@H](CCCNC(=N)N)C(=O)N2)C(C)C)[C@@H](C)CC)C(C)C)CCCCCCC=CCCC[C@@](C)(C(=O)NCC(N)=O)NC(=O)[C@H](CCC(=O)O)NC(=O)[C@H]([C@@H](C)CC)NC(=O)[C@H](C(C)C)NC(=O)[C@H](CC(C)C)NC(=O)[C@H](CO)NC1=O` [SP-315] (Ac-LLQGE[S5]LLR[S5]LDQVNIDEEV[R8][Nle]SLVIE[S5]G-NH2; staple 6-10, 21-28), above 700 nM; to `CCCC[C@@H]1NC(=O)[C@](C)(NC(=O)[C@@H](NC(=O)[C@H](CCC(=O)O)NC(=O)[C@H](CCC(=O)O)NC(=O)[C@H](CC(=O)O)NC(=O)[C@@H](NC(=O)[C@H](CC(N)=O)NC(=O)[C@@H](NC(=O)[C@H](CCC(N)=O)NC(=O)[C@H](CC(=O)O)NC(=O)[C@H](CC(C)C)NC(=O)[C@H](C)NC(=O)[C@H](CCCNC(=N)N)NC(=O)[C@]2(C)CCCC=CCCC[C@](C)(NC(=O)[C@H](CCC(N)=O)NC(=O)[C@H](CC(C)C)NC(=O)[C@H](CC(C)C)NC(C)=O)C(=O)N[C@@H](CCC(=O)O)C(=O)N[C@@H](CCC(=O)O)C(=O)N[C@@H](CC(C)C)C(=O)N2)C(C)C)[C@@H](C)CC)C(C)C)CCCCCCC=CCCC[C@@](C)(C(=O)NCC(N)=O)NC(=O)[C@H](CCC(=O)O)NC(=O)[C@H]([C@@H](C)CC)NC(=O)[C@H](C(C)C)NC(=O)[C@H](CC(C)C)NC(=O)[C@H](CO)NC1=O` [SP-314] (Ac-LLQ[S5]EEL[S5]RALDQVNIDEEV[R8][Nle]SLVIE[S5]G-NH2; staple 4-8, 21-28), above 700 nM.

With `CCCC[C@H](NC(=O)[C@H](CCC(=O)O)NC(=O)[C@@H](NC(=O)[C@@H](NC(=O)[C@H](CC(C)C)NC(=O)[C@H](CO)NC(=O)[C@H](CCCC)NC(=O)[C@H](CC(C)C)NC(=O)[C@@H](NC(=O)[C@H](CCC(=O)O)NC(=O)[C@H](CCC(=O)O)NC(=O)[C@H](CC(=O)O)NC(=O)[C@@H](NC(=O)[C@H](CC(N)=O)NC(=O)[C@@H](NC(=O)[C@H](CCC(N)=O)NC(=O)[C@H](CC(=O)O)NC(=O)[C@H](CC(C)C)NC(=O)[C@H](C)NC(=O)[C@H](CCCNC(=N)N)NC(=O)[C@H](CC(C)C)NC(=O)[C@H](CC(C)C)NC(=O)[C@H](CCC(=O)O)NC(=O)[C@H](CCC(=O)O)NC(=O)CNC(=O)[C@H](CCC(N)=O)NC(=O)[C@H](CC(C)C)NC(=O)[C@H](CC(C)C)NC(C)=O)C(C)C)[C@@H](C)CC)C(C)C)C(C)C)[C@@H](C)CC)C(N)=O` [SP-333] (Ac-LLQGEELLRALDQVNIDEEVL[Nle]SLVIE[Nle]-NH2), the IC50 lay within 400 to 700 nM. Regarding `CCCC[C@H](NC(=O)[C@H](CCC(=O)O)NC(=O)[C@@H](NC(=O)[C@@H](NC(=O)[C@H](CC(C)C)NC(=O)[C@]1(C)CCCC=CCCC[C@](C)(NC(=O)[C@H](CCC(=O)O)NC(=O)[C@H](CC(=O)O)NC(=O)[C@@H](NC(=O)[C@H](Cc2ccccc2)NC(=O)[C@H](CCCCN)NC(=O)[C@H](CCCCN)NC(C)=O)[C@@H](C)CC)C(=O)N[C@@H](C(C)C)C(=O)N[C@@H](CC(C)C)C(=O)N[C@@H](CCCC)C(=O)N1)C(C)C)[C@@H](C)CC)C(=O)N[C@@H](C)C(=O)N[C@@H](CC(C)C)C(=O)N[C@@H](CCCCN)C(=O)N[C@@H](CCCCN)C(N)=O` [SP-137] (Ac-KKFIDE[S5]VL[Nle][S5]LVIE[Nle]ALKK-NH2; staple 7-11), the IC50 is above 700 nM.

On to `CCCC[C@H](NC(=O)[C@H](CCC(=O)O)NC(=O)[C@@H](NC(=O)[C@@H](NC(=O)[C@H](CC(C)C)NC(=O)[C@]1(C)CCCC=CCCC[C@](C)(NC(=O)[C@H](CCC(=O)O)NC(=O)[C@H](CC(=O)O)NC(=O)[C@@H](NC(=O)[C@H](Cc2ccccc2)NC(=O)[C@H](CCCCN)NC(C)=O)[C@@H](C)CC)C(=O)N[C@@H](C(C)C)C(=O)N[C@@H](CC(C)C)C(=O)N[C@@H](CCCC)C(=O)N1)C(C)C)[C@@H](C)CC)C(=O)N[C@@H](C)C(=O)N[C@@H](CC(C)C)C(=O)N[C@@H](CCCCN)C(N)=O` [SP-136] (Ac-KFIDE[S5]VL[Nle][S5]LVIE[Nle]ALK-NH2; staple 6-10), for which the IC50 is above 700 nM. With `CCCC[C@H](NC(=O)[C@H](Cc1ccccc1)NC(=O)[C@@H](NC(=O)[C@H](CCC(=O)O)NC(=O)[C@H](CCC(=O)O)NC(=O)[C@H](CC(=O)O)NC(=O)[C@@H](NC(=O)[C@H](Cc1ccccc1)NC(C)=O)[C@@H](C)CC)C(C)C)C(=O)N[C@@]1(C)CCCC=CCCC[C@@](C)(C(=O)N[C@@H](CCCC)C(=O)N[C@@H](C)C(=O)N[C@@H](CC(C)C)C(=O)N[C@@H](CC(C)C)C(N)=O)NC(=O)[C@H]([C@@H](C)CC)NC(=O)[C@H](C(C)C)NC(=O)[C@H](CC(C)C)NC1=O` [SP-242] (Ac-FIDEEVF[Nle][S5]LVI[S5][Nle]ALL-NH2; staple 9-13), the IC50 is at most 200 nM. Regarding `CCCC[C@@H]1NC(=O)[C@](C)(NC(=O)[C@@H](NC(=O)[C@H](CCC(=O)O)NC(=O)[C@H](CCC(=O)O)NC(=O)[C@H](CC(=O)O)NC(=O)[C@@H](NC(=O)[C@H](CC(N)=O)NC(=O)[C@@H](NC(=O)[C@]2(C)CCCC=CCCCCCC[C@@](C)(NC(=O)[C@H](CCC(=O)O)NC(=O)CNC(=O)[C@H](CCC(N)=O)NC(=O)[C@H](CC(C)C)NC(=O)[C@H](CC(C)C)NC(C)=O)C(=O)N[C@@H](CC(C)C)C(=O)N[C@@H](CC(C)C)C(=O)N[C@@H](CCCNC(=N)N)C(=O)N[C@@H](C)C(=O)N[C@@H](CC(C)C)C(=O)N[C@@H](CC(=O)O)C(=O)N2)C(C)C)[C@@H](C)CC)C(C)C)CCCCCCC=CCCC[C@@](C)(C(=O)NCC(N)=O)NC(=O)[C@H](CCC(=O)O)NC(=O)[C@H]([C@@H](C)CC)NC(=O)[C@H](C(C)C)NC(=O)[C@H](CC(C)C)NC(=O)[C@H](CO)NC1=O` [SP-317] (Ac-LLQGE[R8]LLRALD[S5]VNIDEEV[R8][Nle]SLVIE[S5]G-NH2; staple 6-13, 21-28), the IC50 is above 700 nM. To `CCCC[C@H](NC(=O)[C@H](CCC(=O)O)NC(=O)[C@@H](NC(=O)[C@]1(C)CCCC=CCCC[C@](C)(NC(=O)[C@@H](NC(=O)[C@H](CCC(=O)O)NC(=O)[C@H](CCC(=O)O)NC(=O)[C@H](CC(=O)O)NC(=O)[C@@H](NC(=O)[C@H](CC(N)=O)NC(=O)[C@@H](NC(=O)[C@H](CCC(N)=O)NC(=O)[C@]2(C)CCCC=CCCC[C@](C)(NC(=O)[C@H](CC(C)C)NC(=O)[C@H](CCC(=O)O)NC(=O)[C@H](CCC(=O)O)NC(=O)CNC(=O)[C@H](CCC(N)=O)NC(=O)[C@H](CC(C)C)NC(=O)[C@H](CC(C)C)NC(C)=O)C(=O)N[C@@H](CCCNC(=N)N)C(=O)N[C@@H](C)C(=O)N[C@@H](CC(C)C)C(=O)N2)C(C)C)[C@@H](C)CC)C(C)C)C(=O)N[C@@H](CCCC)C(=O)N[C@@H](CO)C(=O)N[C@@H](CC(C)C)C(=O)N1)[C@@H](C)CC)C(=O)NCC(N)=O` [SP-304] (Ac-LLQGEEL[S5]RAL[S5]QVNIDEEV[S5][Nle]SL[S5]IE[Nle]G-NH2; staple 8-12, 21-25) belongs above 700 nM.

Values taken from US20190225650A1, “PEPTIDOMIMETIC MACROCYCLES AND USE THEREOF IN REGULATING HIF1ALPHA” (AILERON THERAPEUTICS, INC., priority 2013, published 2019).
